Patent US20260138961A1, “MODULATORS OF MITOCHONDRIAL DNA REPLICATION” (Pretzel Therapeutics, Inc., priority 2022, published 2026)

What follows are compounds tested against T1, POLγA:Y955C (Homo sapiens, UniProt P54098, Y955C) (assay: DNA polymerization assay, POLγA:Y955C mutant). Conditions: stimulation of polymerase activity, primed M13mp18 ssDNA, 37° C. 2 hours.
T1 sequence (P54098 1-1239 Y955C): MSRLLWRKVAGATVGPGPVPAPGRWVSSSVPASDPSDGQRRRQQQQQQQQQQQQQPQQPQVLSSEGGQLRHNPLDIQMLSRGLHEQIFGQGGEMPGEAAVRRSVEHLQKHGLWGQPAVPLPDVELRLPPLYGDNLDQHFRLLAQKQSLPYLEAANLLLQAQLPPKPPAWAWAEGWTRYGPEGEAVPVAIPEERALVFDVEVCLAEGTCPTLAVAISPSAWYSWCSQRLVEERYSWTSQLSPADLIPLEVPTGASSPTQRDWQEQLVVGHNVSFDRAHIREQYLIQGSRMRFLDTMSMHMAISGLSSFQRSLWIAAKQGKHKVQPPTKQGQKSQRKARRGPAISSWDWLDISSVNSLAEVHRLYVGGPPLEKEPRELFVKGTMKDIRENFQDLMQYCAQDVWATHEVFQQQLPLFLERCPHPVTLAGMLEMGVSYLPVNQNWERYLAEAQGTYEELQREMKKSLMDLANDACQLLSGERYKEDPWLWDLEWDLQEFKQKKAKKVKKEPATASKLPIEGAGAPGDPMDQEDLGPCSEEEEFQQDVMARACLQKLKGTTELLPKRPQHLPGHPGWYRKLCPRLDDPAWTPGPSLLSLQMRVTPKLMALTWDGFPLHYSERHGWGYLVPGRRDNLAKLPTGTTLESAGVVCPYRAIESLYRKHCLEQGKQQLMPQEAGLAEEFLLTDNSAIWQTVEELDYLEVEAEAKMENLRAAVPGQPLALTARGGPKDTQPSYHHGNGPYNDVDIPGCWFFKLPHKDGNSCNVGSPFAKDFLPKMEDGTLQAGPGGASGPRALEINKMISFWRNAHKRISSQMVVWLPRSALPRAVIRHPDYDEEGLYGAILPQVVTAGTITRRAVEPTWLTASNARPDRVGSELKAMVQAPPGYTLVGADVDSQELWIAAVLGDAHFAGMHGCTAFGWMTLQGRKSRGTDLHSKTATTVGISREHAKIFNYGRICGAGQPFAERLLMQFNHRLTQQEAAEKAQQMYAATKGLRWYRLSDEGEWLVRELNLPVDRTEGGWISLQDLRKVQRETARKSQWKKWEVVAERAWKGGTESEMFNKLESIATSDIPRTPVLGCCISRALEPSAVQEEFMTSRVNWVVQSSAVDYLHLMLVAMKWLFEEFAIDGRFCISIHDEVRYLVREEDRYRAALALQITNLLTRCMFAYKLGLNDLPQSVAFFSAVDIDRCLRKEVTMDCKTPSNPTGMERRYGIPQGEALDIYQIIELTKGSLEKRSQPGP
T1 sequence (Q9UHN1 1-485 partner): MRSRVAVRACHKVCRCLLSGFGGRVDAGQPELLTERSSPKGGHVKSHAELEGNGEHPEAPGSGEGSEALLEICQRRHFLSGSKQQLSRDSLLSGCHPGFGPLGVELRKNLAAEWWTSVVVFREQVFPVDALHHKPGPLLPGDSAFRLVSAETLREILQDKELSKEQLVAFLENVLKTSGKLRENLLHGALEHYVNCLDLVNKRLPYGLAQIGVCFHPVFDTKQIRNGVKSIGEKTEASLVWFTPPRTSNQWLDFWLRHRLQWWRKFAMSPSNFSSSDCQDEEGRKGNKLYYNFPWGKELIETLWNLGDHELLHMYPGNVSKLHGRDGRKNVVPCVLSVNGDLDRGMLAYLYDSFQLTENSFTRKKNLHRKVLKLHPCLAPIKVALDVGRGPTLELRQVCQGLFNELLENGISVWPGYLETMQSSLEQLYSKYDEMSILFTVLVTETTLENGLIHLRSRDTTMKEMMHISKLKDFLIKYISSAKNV
Format: biochemical
Method: DNA Polymerization Assay to Monitor Effects on Human Wildtype POLγ and Four Disease-Causing Mutant Variants of Human POLγ.
The ability of small molecules to stimulate the polymerase activity of POLγ was analyzed in a quantitative fluorescence SYBR Green I assay with fluorescence intensity (FI) readout.
In the presence of dNTPs, wild type human POLγ and mutant derivatives thereof were incubated with single-stranded, circular M13mp18 ssDNA hybridized to a short DNA oligonucleotide that functions as a primer for initiation of DNA synthesis. POLγ and mutant derivatives thereof will extend the primer and use the M13mp18 molecule as a template to synthesize long stretches of double-stranded DNA. SYBR Green I, which is a double-stranded DNA-binding dye, was used to quantify formation of double-stranded DNA in the reaction. When bound to double-stranded DNA, SYBR Green I fluorescence increases by up to 100-fold.
The assay was performed in the 384-well plate format. Upon addition of compounds, changes in double-stranded DNA synthesis activity can be monitored by following effects on fluorescent intensity.
The reactions also contained the accessory POLγB subunit, and the human mitochondrial single-stranded DNA binding protein (mtSSB).
The DNA template mixture used in the assay contained 0.5 nM primed M13 mp18 ssDNA, 400 nM mtSSB, 0.1 mM Tris-HCl (pH 8.0), 0.1 mM dNTP, 10 mM MgCl2, 0.1 mg/mL BSA, 1 mM TCEP solution, and 0.02% Triton X-100. The DNA template mixture for the wild type protein contained either 100 μM dNTP, 1 μM dNTP, or 0.1 μM dNTP, designated in Table 2 as 100 μM, 1 μM, and 0.1 μM, respectfully.
Microplates with compounds (0.1 μL in each well) to be tested in the assay were prepared from 10 mM compound stocks in 100% DMSO, and equal amounts of DMSO without any compound were added to positive and negative control wells.
The protein mixture was dispensed (5 μL into each well) into compound plates and incubated at 37° C. for 15 minutes. After incubation, 5 μL of the DNA template mixture was dispensed into each well. The plates were then incubated at 37° C. for 2 hours.
During incubation, a combined stop buffer and detection reagent solution was prepared. The buffer contained 25 mM EDTA (pH 8.0), 0.02% Triton X-100, and SYBR Green I [Invitrogen] diluted 10,000× (for fluorescent readout). EDTA will stop the enzymatic reaction by chelating magnesium ions.

SMILES | AC50 [µM]
Cc1cc(S(=O)(=O)Nc2ccc3ccn(C)c3c2)c(C)cc1Cl [Example 72, 4-chloro-2,5-dimethyl-N-(1-methyl-1H-indol-6-yl)benzenesulfonamide] | 6
Cc1nc2ccc(NS(=O)(=O)c3cc(C)c(Cl)cc3C)cc2s1 [Example 73, 4-chloro-2,5-dimethyl-N-(2-methylbenzo[d]thiazol-6-yl)benzenesulfonamide] | 0.8
Cc1cc(S(=O)(=O)Nc2cccc(-c3ncc(C4CC4)s3)c2)c(C)cc1Cl [Example 76, 4-chloro-N-(3-(5-cyclopropylthiazol-2-yl)phenyl)-2,5-dimethylbenzenesulfonamide] | 2
Cc1csc(-c2ccccc2NS(=O)(=O)c2cc(C)c(Cl)cc2C)n1 [Example 80, 4-chloro-2,5-dimethyl-N-(2-(4-methylthiazol-2-yl)phenyl)benzenesulfonamide] | > 100
Cc1cc(S(=O)(=O)Nc2csc(-c3ccccc3)n2)c(C)cc1Cl [Example 81, 4-chloro-2,5-dimethyl-N-(2-phenylthiazol-4-yl)benzenesulfonamide] | 0.2
Cc1cc(S(=O)(=O)Nc2cccc(-c3ncc(CN(C)C)s3)c2)c(C)cc1Cl [Example 87, 4-chloro-N-(3-(5-((dimethylamino)methyl)thiazol-2-yl)phenyl)-2,5-dimethylbenzenesulfonamide] | 6
Cc1cc(S(=O)(=O)Nc2cccc(-c3ncc(CO)s3)c2)c(C)cc1Cl [Example 89, 4-chloro-N-(3-(5-(hydroxymethyl)thiazol-2-yl)phenyl)-2,5-dimethylbenzenesulfonamide] | 0.1
